Reference: US9492471B2, “Methods of treating a disease or disorder associated with Bruton'S Tyrosine Kinase” (Celgene Avilomics Research, Inc., priority 2013, dated 2016)
Where two headings read alike, the source gives them in different places.

Legend:
Assay in all cases: HotSpot kinase profiling
Type in all cases: biochemical
SGK1 = molecular target: T1, SGK1 (Homo sapiens, UniProt O00141)
T1 construct: purchased Reaction Biology Corp
T1 sequence (O00141 1-431): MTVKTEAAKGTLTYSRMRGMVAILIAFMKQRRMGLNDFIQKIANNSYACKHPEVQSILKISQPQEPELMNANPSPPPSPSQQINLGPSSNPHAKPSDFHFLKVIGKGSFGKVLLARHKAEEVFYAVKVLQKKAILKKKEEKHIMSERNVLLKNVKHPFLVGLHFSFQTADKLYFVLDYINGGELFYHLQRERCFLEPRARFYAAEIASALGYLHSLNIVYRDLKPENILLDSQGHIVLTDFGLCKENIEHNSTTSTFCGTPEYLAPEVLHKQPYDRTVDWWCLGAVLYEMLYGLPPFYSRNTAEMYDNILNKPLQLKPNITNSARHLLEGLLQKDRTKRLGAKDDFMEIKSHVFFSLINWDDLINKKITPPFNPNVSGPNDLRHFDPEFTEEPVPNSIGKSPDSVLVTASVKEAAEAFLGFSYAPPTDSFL
Summary of the method: (§1)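 Radiometric kinase assay with P81 filter capture; each kinase was added to fresh substrate plus cofactors in reaction buffer and incubated 2 h at room temperature. Unreacted phosphate was washed off with 0.1% phosphoric acid before detection; percent inhibition is relative to DMSO control, averaged over replicates.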

TYRO3/SKY = molecular target: T2, TYRO3/SKY (Homo sapiens, UniProt Q06418)
T2 construct: purchased Reaction Biology Corp
T2 sequence (Q06418 41-890): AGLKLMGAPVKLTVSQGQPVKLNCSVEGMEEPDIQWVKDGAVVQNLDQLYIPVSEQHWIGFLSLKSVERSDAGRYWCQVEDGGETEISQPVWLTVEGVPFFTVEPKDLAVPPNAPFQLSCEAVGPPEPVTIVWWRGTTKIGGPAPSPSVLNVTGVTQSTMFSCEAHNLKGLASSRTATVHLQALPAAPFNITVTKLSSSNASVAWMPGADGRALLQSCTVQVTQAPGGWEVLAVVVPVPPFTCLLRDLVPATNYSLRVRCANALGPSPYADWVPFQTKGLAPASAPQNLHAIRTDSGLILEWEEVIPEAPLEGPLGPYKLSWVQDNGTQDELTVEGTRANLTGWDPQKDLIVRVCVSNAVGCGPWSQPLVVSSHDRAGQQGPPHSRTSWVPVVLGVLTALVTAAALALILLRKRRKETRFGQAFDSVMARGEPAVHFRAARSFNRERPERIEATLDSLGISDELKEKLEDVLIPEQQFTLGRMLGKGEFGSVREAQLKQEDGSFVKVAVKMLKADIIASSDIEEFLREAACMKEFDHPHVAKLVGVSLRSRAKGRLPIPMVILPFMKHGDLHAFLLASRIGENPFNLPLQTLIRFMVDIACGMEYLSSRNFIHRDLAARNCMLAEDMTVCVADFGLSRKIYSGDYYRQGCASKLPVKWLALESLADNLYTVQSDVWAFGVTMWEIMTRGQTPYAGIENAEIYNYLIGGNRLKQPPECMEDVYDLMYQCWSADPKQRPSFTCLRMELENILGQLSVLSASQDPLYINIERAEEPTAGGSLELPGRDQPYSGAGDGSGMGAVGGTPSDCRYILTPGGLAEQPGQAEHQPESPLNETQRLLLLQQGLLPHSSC
Summary of the method: as §1

TTBK2 = molecular target: T3, TTBK2 (Homo sapiens, UniProt Q6IQ55)
T3 construct: purchased Reaction Biology Corp
T3 sequence (Q6IQ55 whole entry): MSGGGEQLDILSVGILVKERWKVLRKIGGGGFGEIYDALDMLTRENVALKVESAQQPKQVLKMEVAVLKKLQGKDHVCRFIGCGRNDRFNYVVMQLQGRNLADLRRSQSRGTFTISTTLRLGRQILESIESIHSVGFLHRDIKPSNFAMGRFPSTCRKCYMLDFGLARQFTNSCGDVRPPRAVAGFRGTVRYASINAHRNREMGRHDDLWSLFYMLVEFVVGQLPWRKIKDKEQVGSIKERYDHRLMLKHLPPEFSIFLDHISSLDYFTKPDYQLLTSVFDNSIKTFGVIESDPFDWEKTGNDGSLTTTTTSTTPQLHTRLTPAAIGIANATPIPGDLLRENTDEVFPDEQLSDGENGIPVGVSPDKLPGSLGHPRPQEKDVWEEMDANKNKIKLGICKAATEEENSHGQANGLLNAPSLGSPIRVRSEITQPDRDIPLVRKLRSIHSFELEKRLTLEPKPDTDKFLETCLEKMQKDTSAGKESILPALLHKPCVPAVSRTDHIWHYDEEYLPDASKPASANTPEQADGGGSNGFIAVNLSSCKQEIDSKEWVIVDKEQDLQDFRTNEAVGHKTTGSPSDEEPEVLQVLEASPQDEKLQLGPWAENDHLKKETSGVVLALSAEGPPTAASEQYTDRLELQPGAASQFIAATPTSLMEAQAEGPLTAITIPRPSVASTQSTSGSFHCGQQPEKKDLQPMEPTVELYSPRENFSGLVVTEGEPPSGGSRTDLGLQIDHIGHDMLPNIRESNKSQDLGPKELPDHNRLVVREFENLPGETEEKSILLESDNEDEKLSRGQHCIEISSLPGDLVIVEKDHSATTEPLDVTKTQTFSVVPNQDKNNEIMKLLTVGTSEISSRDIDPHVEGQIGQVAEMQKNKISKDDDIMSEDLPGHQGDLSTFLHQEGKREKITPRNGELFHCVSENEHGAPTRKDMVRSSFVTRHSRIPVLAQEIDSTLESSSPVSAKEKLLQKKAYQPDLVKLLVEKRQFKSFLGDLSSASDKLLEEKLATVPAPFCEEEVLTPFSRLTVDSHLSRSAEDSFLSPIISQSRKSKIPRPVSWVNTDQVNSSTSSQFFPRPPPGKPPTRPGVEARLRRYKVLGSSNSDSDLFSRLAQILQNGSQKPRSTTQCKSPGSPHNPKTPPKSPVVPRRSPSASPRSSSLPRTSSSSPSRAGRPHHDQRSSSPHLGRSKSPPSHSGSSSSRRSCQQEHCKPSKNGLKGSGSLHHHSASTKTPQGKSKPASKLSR
Summary of the method: as §1

AKT1 = molecular target: T4, AKT1 (Homo sapiens, UniProt P31749)
T4 construct: purchased Reaction Biology Corp
T4 sequence (P31749 whole entry): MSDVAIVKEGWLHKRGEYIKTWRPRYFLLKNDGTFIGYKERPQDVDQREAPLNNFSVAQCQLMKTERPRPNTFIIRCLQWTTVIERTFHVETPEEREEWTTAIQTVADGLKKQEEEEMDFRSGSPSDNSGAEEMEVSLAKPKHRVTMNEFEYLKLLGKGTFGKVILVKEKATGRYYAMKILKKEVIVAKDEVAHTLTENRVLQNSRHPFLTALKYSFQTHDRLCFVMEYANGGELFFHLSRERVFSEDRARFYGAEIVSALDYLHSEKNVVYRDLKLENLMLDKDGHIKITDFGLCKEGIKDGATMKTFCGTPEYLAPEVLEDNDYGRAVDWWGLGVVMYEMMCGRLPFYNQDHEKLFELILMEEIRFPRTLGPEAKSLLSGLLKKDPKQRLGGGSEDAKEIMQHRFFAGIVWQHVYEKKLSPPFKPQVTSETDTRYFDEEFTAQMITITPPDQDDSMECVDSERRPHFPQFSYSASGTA
Summary of the method: as §1

DRAK1/STK17A = molecular target: T5, DRAK1/STK17A (Homo sapiens, UniProt Q9UEE5)
T5 construct: purchased Reaction Biology Corp
T5 sequence (Q9UEE5 1-414): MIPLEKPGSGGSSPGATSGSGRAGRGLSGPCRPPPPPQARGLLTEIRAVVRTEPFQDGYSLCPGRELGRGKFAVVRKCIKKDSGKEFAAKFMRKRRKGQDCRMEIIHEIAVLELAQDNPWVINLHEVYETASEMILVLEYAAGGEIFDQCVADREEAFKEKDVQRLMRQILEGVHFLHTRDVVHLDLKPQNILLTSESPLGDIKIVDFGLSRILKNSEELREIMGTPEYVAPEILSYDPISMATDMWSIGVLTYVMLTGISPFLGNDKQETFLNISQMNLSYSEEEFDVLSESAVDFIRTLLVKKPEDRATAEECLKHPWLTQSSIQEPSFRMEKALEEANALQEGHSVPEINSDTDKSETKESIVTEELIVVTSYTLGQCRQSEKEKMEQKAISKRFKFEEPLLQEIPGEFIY
Summary of the method: as §1

MAPKAPK2 = molecular target: T6, MAPKAPK2 (Homo sapiens, UniProt P49137)
T6 construct: purchased Reaction Biology Corp
T6 sequence (P49137 whole entry): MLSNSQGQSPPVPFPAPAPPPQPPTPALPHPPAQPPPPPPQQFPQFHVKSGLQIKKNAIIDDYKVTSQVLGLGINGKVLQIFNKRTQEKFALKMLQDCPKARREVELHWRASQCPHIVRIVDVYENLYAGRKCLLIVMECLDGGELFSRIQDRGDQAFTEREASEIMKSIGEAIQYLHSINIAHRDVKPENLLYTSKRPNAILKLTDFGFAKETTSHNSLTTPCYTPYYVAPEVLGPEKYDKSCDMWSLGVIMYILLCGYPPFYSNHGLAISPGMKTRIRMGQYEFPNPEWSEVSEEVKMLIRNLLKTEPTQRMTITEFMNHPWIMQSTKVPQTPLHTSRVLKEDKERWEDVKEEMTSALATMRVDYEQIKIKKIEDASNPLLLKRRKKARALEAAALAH
Summary of the method: as §1

CHK2 = molecular target: T7, CHK2 (Homo sapiens, UniProt O96017)
T7 construct: purchased Reaction Biology Corp
T7 sequence (O96017 whole entry): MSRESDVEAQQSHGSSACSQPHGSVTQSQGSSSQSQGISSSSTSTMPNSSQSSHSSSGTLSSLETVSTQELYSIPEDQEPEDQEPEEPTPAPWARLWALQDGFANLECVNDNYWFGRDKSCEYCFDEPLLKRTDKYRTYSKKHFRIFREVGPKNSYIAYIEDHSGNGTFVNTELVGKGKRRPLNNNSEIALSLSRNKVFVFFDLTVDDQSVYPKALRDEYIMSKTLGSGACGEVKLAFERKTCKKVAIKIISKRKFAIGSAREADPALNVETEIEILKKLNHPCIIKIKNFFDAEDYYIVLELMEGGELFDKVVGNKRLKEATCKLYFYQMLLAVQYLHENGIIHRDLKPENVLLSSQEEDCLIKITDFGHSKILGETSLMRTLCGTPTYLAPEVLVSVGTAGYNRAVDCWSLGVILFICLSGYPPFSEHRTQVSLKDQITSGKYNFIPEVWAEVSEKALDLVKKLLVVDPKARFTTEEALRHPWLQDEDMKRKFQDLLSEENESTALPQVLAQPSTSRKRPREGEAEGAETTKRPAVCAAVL
Summary of the method: as §1

MEK1 = molecular target: T8, MEK1 (Homo sapiens, UniProt Q02750)
T8 construct: purchased Reaction Biology Corp
T8 sequence (Q02750 whole entry): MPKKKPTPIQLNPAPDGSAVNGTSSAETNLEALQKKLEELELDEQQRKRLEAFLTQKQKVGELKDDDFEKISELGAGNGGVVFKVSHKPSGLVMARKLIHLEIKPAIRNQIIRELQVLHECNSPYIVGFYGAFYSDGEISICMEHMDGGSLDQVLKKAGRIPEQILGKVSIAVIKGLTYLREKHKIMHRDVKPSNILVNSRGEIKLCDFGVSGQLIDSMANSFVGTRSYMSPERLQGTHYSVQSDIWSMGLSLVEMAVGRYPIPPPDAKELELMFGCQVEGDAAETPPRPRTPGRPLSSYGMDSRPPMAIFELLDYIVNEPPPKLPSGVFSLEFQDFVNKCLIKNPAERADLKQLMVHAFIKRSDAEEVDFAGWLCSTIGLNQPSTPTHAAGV
Summary of the method: as §1

WEE1 = molecular target: T9, WEE1 (Homo sapiens, UniProt P30291)
T9 construct: purchased Reaction Biology Corp
T9 sequence (P30291 whole entry): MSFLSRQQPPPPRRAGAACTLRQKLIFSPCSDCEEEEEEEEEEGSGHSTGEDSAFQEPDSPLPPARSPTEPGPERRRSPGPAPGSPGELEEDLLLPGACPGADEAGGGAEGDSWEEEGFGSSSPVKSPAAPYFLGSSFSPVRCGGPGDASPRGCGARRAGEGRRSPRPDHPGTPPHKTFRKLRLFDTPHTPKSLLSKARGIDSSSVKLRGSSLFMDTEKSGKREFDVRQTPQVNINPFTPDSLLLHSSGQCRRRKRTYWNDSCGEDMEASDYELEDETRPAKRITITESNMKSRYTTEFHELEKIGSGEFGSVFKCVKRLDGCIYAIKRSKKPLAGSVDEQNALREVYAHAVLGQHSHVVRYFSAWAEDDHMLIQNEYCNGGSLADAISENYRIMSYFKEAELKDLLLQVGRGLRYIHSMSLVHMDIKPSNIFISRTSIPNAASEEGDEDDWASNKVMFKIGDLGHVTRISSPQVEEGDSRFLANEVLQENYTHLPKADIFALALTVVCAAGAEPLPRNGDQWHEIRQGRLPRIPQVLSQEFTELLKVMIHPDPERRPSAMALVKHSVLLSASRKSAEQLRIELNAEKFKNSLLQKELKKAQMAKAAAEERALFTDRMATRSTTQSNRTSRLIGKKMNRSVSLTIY
Summary of the method: as §1

[1] = read-out: % Enzyme Activity (relative to DMSO controls) Run 1
[2] = read-out: % Enzyme Activity (relative to DMSO controls) Run 2

C=CC(=O)Nc1cccc(Nc2nc(Nc3ccc(OCCOC)c(F)c3)ncc2F)c1 [Compound 2]
inhibition at 3 µM (SGK1): 0.37% | remaining activity at 3 µM (SGK1; [1]): 99.7% | remaining activity at 3 µM (SGK1; [2]): 99.5% | inhibition at 3 µM (TYRO3/SKY): 4.03% | remaining activity at 3 µM (TYRO3/SKY; [1]): 95.1% | remaining activity at 3 µM (TYRO3/SKY; [2]): 96.8% | inhibition at 3 µM (TTBK2): -0.86% | remaining activity at 3 µM (TTBK2; [1]): 102% | remaining activity at 3 µM (TTBK2; [2]): 99.7% | inhibition at 3 µM (AKT1): 5.87% | remaining activity at 3 µM (AKT1; [1]): 95.1% | remaining activity at 3 µM (AKT1; [2]): 93.1% | inhibition at 3 µM (DRAK1/STK17A): 18.2% | remaining activity at 3 µM (DRAK1/STK17A; [1]): 82.9% | remaining activity at 3 µM (DRAK1/STK17A; [2]): 80.6% | inhibition at 3 µM (MAPKAPK2): -7.86% | remaining activity at 3 µM (MAPKAPK2; [1]): 110% | remaining activity at 3 µM (MAPKAPK2; [2]): 106% | inhibition at 3 µM (CHK2): 74.4% | remaining activity at 3 µM (CHK2; [1]): 25.9% | remaining activity at 3 µM (CHK2; [2]): 25.3% | inhibition at 3 µM (MEK1): -10.3% | remaining activity at 3 µM (MEK1; [1]): 109% | remaining activity at 3 µM (MEK1; [2]): 112% | inhibition at 3 µM (WEE1): 26% | remaining activity at 3 µM (WEE1; [1]): 73.1% | remaining activity at 3 µM (WEE1; [2]): 74.9%
